PMC8289188, “Polyoxometalates as Effective Nano-inhibitors of Amyloid Aggregation of Pro-inflammatory S100A9 Protein Involved in Neurodegenerative Diseases” (ACS Applied Materials & Interfaces, 2021)
Read-outs that look alike come from different tables or passages of the source.

How the values were obtained:
S100A9 [1] = biological target: T1, S100A9 (Homo sapiens, UniProt P06702); test: intrinsic Trp88 fluorescence titration; ANS fluorescence titration gave Kd […]; ThT/AFM amyloid inhibition; format: binding
T1 construct: native S100A9 expressed in Escherichia coli
T1 sequence (P06702 1-114): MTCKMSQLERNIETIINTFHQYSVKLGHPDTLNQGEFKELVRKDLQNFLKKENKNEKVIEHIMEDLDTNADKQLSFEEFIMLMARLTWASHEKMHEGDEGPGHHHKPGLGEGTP

S100A9 [2] = biological target: T1, S100A9; test: as above; format: binding; remark: listed apart in the source

Kd (S100A9 [1]) [µM] | Kd (S100A9 [2]) [µM] | Substance
2.86 ± 0.39 | – | Nb10
– | 2.48 ± 0.2 | TiNb9
